Experiments:
[1] = target: TrkA (histidine-tagged recombinant human TrkA, cytoplasmic domain) (Homo sapiens (Human), UniProt P04629); assay: TrkA ELISA Assay; assay type: biochemical; conditions: Table 1; ELISA, 500 μM ATP; read-out: TrkA Enzyme IC50
Method in brief: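 His-tagged human TrkA cytoplasmic domain phosphorylated poly(Glu,Ala,Tyr 6:3:1) coated at 0.025 mg/mL, with inhibitors present. Phosphotyrosine was detected with HRP-conjugated PY20 antibody (0.2 μg/mL) and TMB, read as absorbance at 450 nm after phosphoric acid stop.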

Human Jak2 kinase domain = Human Jak2 kinase domain (Homo sapiens (Human), UniProt O60674); assay: Jak2 Inhibition Assay (Omnia kinase assay); assay type: biochemical; conditions: Table 1; 500 μM ATP; >1000 nM when >50% inhibition not observed at 1000 nM; read-out: Jak2 Enzyme IC50
Sequence of Human Jak2 kinase domain (O60674 808-1132): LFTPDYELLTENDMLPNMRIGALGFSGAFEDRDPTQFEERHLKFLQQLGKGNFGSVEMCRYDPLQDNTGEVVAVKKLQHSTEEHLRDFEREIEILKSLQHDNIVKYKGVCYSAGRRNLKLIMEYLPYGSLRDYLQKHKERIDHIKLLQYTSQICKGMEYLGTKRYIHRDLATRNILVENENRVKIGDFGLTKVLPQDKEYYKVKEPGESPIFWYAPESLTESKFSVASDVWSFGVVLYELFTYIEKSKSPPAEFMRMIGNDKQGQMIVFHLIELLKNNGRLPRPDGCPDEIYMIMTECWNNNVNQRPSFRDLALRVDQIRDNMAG

Sequence of TrkA (histidine-tagged recombinant human TrkA, cytoplasmic domain) (P04629 440-796): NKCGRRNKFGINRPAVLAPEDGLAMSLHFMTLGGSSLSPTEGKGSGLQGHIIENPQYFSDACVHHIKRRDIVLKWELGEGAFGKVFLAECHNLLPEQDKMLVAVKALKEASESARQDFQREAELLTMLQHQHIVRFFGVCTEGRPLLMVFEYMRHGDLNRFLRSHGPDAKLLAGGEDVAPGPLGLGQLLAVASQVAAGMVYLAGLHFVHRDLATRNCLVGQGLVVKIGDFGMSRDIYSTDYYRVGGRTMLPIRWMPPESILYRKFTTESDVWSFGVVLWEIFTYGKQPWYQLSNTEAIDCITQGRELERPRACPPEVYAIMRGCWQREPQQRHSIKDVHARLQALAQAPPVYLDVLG

Row | Structure (SMILES) | IC50 [1] | IC50 (Human Jak2 kinase domain)
1 | CNC(=O)c1cnn2ccc(N3CCC[C@@H]3c3cc(F)cnc3OC)nc12 [Example 153, (R)-5-(2-(5-fluoro-2-methoxypyridin-3-yl)pyrrolidin-1-yl)-N-methylpyrazolo[1,5-a]pyrimidine-3-carboxamide] | 0.0021 µM | > 1 µM
2 | COc1ncc(F)cc1[C@H]1CCCN1c1ccn2ncc(C(=O)N[C@H]3CC[C@H](O)C3)c2n1 [Example 154, 5-((R)-2-(5-fluoro-2-methoxypyridin-3-yl)pyrrolidin-1-yl)-N-((1S,3S)-3-hydroxycyclopentyl)pyrazolo[1,5-a]pyrimidine-3-carboxamide] | 0.0013 µM | 0.524 µM
3 | COc1ncc(F)cc1[C@H]1CCCN1c1ccn2ncc(C(=O)NCCO)c2n1 [Example 155, (R)-5-(2-(5-fluoro-2-methoxypyridin-3-yl)pyrrolidin-1-yl)-N-(2-hydroxyethyl)pyrazolo[1,5-a]pyrimidine-3-carboxamide] | 0.0002 µM | > 1 µM
4 | COc1ncc(F)cc1[C@H]1CCCN1c1ccn2ncc(C(=O)NC[C@H](C)O)c2n1 [Example 156, 5-((R)-2-(5-fluoro-2-methoxypyridin-3-yl)pyrrolidin-1-yl)-N-((S)-2-hydroxypropyl)pyrazolo[1,5-a]pyrimidine-3-carboxamide] | 0.0021 µM | > 1 µM
5 | COc1ncc(F)cc1[C@H]1CCCN1c1ccn2ncc(C(=O)NC[C@@H](C)O)c2n1 [Example 157, 5-((R)-2-(5-fluoro-2-methoxypyridin-3-yl)pyrrolidin-1-yl)-N-((R)-2-hydroxypropyl)pyrazolo[1,5-a]pyrimidine-3-carboxamide] | 0.0028 µM | > 1 µM
6 | COc1ncc(F)cc1[C@H]1CCCN1c1ccn2ncc(C(=O)NCC(C)(C)O)c2n1 [Example 158, (R)-5-(2-(5-fluoro-2-methoxypyridin-3-yl)pyrrolidin-1-yl)-N-(2-hydroxy-2-methylpropyl)pyrazolo[1,5-a]pyrimidine-3-carboxamide] | 0.0099 µM | > 1 µM
7 | COc1ncc(F)cc1[C@H]1CCCN1c1ccn2ncc(C(=O)NC3CCN(CCO)CC3)c2n1 [Example 159, (R)-5-(2-(5-fluoro-2-methoxypyridin-3-yl)pyrrolidin-1-yl)-N-(1-(2-hydroxyethyl)piperidin-4-yl)pyrazolo[1,5-a]pyrimidine-3-carboxamide] | 0.0043 µM | > 1 µM
8 | COc1ncc(F)cc1[C@H]1CCCN1c1ccn2ncc(C(=O)NC(CO)CO)c2n1 [Example 160, (R)-N-(1,3-dihydroxypropan-2-yl)-5-(2-(5-fluoro-2-methoxypyridin-3-yl)pyrrolidin-1-yl)pyrazolo[1,5-a]pyrimidine-3-carboxamide] | 0.0256 µM | > 1 µM
9 | COc1ncc(F)cc1[C@H]1CCCN1c1ccn2ncc(C(=O)Nc3ccc(=O)[nH]c3)c2n1 [Example 161, (R)-5-(2-(5-fluoro-2-methoxypyridin-3-yl)pyrrolidin-1-yl)-N-(6-oxo-1,6-dihydropyridin-3-yl)pyrazolo[1,5-a]pyrimidine-3-carboxamide] | 0.003 µM | > 1 µM
10 | COc1ncc(F)cc1[C@H]1CCCN1c1ccn2ncc(C(=O)NC3CCN(S(C)(=O)=O)CC3)c2n1 [Example 162, (R)-5-(2-(5-fluoro-2-methoxypyridin-3-yl)pyrrolidin-1-yl)-N-(1-(methylsulfonyl)piperidin-4-yl)pyrazolo[1,5-a]pyrimidine-3-carboxamide] | 0.0022 µM | 0.444 µM
11 | O=C(NCCO)c1cnn2ccc(N3CCCC3c3cc(F)ccc3F)nc12 (stereo not shown) [Example 165, 5-(2-(2,5-difluorophenyl)pyrrolidin-1-yl)-N-(2-hydroxyethyl)pyrazolo[1,5-a]pyrimidine-3-carboxamide] | 0.0011 µM | > 1 µM
12 | C[C@H](O)CNC(=O)c1cnn2ccc(N3CCC[C@@H]3c3cc(F)ccc3F)nc12 [Example 166, 5-((R)-2-(2,5-difluorophenyl)pyrrolidin-1-yl)-N-(2-hydroxypropyl)pyrazolo[1,5-a]primidine-3-carboxamide] | 0.0024 µM | > 1 µM
13 | O=C(N[C@H]1CC[C@H](O)C1)c1cnn2ccc(N3CCC[C@@H]3c3cc(F)ccc3F)nc12 [Example 169, 5-((R)-2-(2,5-difluorophenyl)pyrrolidin-1-yl)-N-((1S,3S)-3-hydroxycyclopentyl)pyrazolo[1,5-a]pyrimidine-3-carboxamide] | 0.0009 µM | 0.759 µM
14 | CN1CCN(CCNC(=O)c2cnn3ccc(N4CCC[C@@H]4c4cc(F)ccc4F)nc23)CC1 [Example 171, 5-((R)-2-(2,5-difluorophenyl)pyrrolidin-1-yl)-N-(2-(4-methylpiperazin-1-yl)ethyl)pyrazolo[1,5-a]pyrimidine-3-carboxamide] | 0.0047 µM | > 1 µM
15 | COCCNC(=O)c1cnn2ccc(N3CCC[C@@H]3c3cc(F)ccc3F)nc12 [Example 172, 5-((R)-2-(2,5-difluorophenyl)pyrrolidin-1-yl)-N-(2-methoxyethyl)pyrazolo[1,5-a]pyrimidine-3-carboxamide] | 0.0025 µM | > 1 µM
16 | C[C@@H](O)[C@H](CO)NC(=O)c1cnn2ccc(N3CCC[C@@H]3c3cc(F)ccc3F)nc12 [Example 174, 5-((R)-2-(2,5-difluorophenyl)pyrrolidin-1-yl)-N-((2S,3R)-1,3-dihydroxybutan-2-yl)pyrazolo[1,5-a]pyrimidine-3-carboxamide] | 0.0163 µM | > 1 µM

Continued, values first:

Row | IC50 [1] | IC50 (Human Jak2 kinase domain) | Structure (SMILES)
17 | 0.0122 µM | > 1 µM | C[C@H](O)[C@H](CO)NC(=O)c1cnn2ccc(N3CCC[C@@H]3c3cc(F)ccc3F)nc12 [Example 175, 5-((R)-2-(2,5-difluorophenyl)pyrrolidin-1-yl)-N-((2S,3S)-1,3-dihydroxybutan-2-yl)pyrazolo[1,5-a]pyrimidine-3-carboxamide]
18 | 0.0272 µM | > 1 µM | C[C@H](O)[C@@H](CO)NC(=O)c1cnn2ccc(N3CCC[C@@H]3c3cc(F)ccc3F)nc12 [Example 176, 5-((R)-2-(2,5-difluorophenyl)pyrrolidin-1-yl)-N-((2R,3S)-1,3-dihydroxybutan-2-yl)pyrazolo[1,5-a]pyrimidine-3-carboxamide]
19 | 0.0018 µM | > 1 µM | C[C@@H](CO)NC(=O)c1cnn2ccc(N3CCC[C@@H]3c3cc(F)ccc3F)nc12 [Example 177, 5-((R)-2-(2,5-difluorophenyl)pyrrolidin-1-yl)-N-((S)-1-hydroxypropan-2-yl)pyrazolo[1,5-a]pyrimidine-3-carboxamide]
20 | 0.0025 µM | > 1 µM | CC[C@@H](CO)NC(=O)c1cnn2ccc(N3CCC[C@@H]3c3cc(F)ccc3F)nc12 [Example 178, 5-((R)-2-(2,5-difluorophenyl)pyrrolidin-1-yl)-N-((S)-1-hydroxybutan-2-yl)pyrazolo[1,5-a]pyrimidine-3-carboxamide]
21 | 0.0085 µM | > 1 µM | CC(C)[C@@H](CO)NC(=O)c1cnn2ccc(N3CCC[C@@H]3c3cc(F)ccc3F)nc12 [Example 179, 5-((R)-2-(2,5-difluorophenyl)pyrrolidin-1-yl)-N-((S)-1-hydroxy-3-methylbutan-2-yl)pyrazolo[1,5-a]pyrimidine-3-carboxamide]
22 | 0.0123 µM | > 1 µM | CC(C)(C)[C@@H](CO)NC(=O)c1cnn2ccc(N3CCC[C@@H]3c3cc(F)ccc3F)nc12 [Example 180, 5-((R)-2-(2,5-difluorophenyl)pyrrolidin-1-yl)-N-((S)-1-hydroxy-3,3-dimethylbutan-2-yl)pyrazolo[1,5-a]pyrimidine-3-carboxamide]
23 | 0.0069 µM | > 1 µM | Cc1ncc(F)cc1[C@H]1CCCN1c1ccn2ncc(C(=O)NC(C)(C)C)c2n1 [Example 183, (R)-N-tert-butyl-5-(2-(5-fluoro-2-methylpyridin-3-yl)pyrrolidin-1-yl)pyrazolo[1,5-a]pyrimidine-3-carboxamide]
24 | 0.0074 µM | > 1 µM | Cc1ncc(F)cc1[C@H]1CCCN1c1ccn2ncc(C(=O)NC(C)C)c2n1 [Example 184, (R)-5-(2-(5-fluoro-2-methylpyridin-3-yl)pyrrolidin-1-yl)-N-isopropylpyrazolo[1,5-a]pyrimidine-3-carboxamide]
25 | 0.0571 µM | > 1 µM | CNC(=O)c1cnn2ccc(N3CCC[C@@H]3c3cc(F)cnc3C)nc12 [Example 186, (R)-5-(2-(5-fluoro-2-methylpyridin-3-yl)pyrrolidin-1-yl)-N-methylpyrazolo[1,5-a]pyrimidine-3-carboxamide]
26 | 0.083 µM | > 1 µM | Cc1ncc(F)cc1[C@H]1CCCN1c1ccn2ncc(C(=O)NCCO)c2n1 [Example 188, (R)-5-(2-(5-fluoro-2-methylpyridin-3-yl)pyrrolidin-1-yl)-N-(2-hydroxyethyl)pyrazolo[1,5-a]pyrimidine-3-carboxamide]
27 | 0.0764 µM | > 1 µM | Cc1ncc(F)cc1[C@H]1CCCN1c1ccn2ncc(C(=O)NC[C@@H](C)O)c2n1 [Example 189, (R)-5-(2-(5-fluoro-2-methylpyridin-3-yl)pyrrolidin-1-yl)-N-((R)-2-hydroxypropyl)pyrazolo[1,5-a]pyrimidine-3-carboxamide]
28 | 0.0695 µM | > 1 µM | COCCNC(=O)c1cnn2ccc(N3CCC[C@@H]3c3cc(F)cnc3C)nc12 [Example 191, (R)-5-(2-(5-fluoro-2-methylpyridin-3-yl)pyrrolidin-1-yl)-N-(2-methoxyethyl)pyrazolo[1,5-a]pyrimidine-3-carboxamide]
29 | 0.438 µM | > 1 µM | Cc1ncc(F)cc1[C@H]1CCCN1c1ccn2ncc(C(=O)N3CC(O)C3)c2n1 [Example 192, (R)-(5-(2-(5-fluoro-2-methylpyridin-3-yl)pyrrolidin-1-yl)pyrazolo[1,5-a]pyrimidin-3-yl)(3-hydroxyazetidin-1-yl)methanone]

Reference: patent publication US8791123B2, “Substituted pyrazolo[1,5-a]pyrimidine compounds as Trk kinase inhibitors” (Array Biopharma, Inc., priority 2009, dated 2014)
